From patent US20190046627A1, “USE OF A GNP-LLO91-99 COMPLEX FOR THE TREATMENT AND PREVENTION OF CANCER” (FUNDACIÓN INSTITUTO DE INVESTIGACIÓN MARQUES DE VALDECILLA, priority 2016, published 2019)
“Also recorded” adds a separate entry of the source.

Key:
murine melanoma B16F10 [1] = assay: Reduction of the size of the tumor in newborns (Example 6); assay type: in vivo; conditions: 9-day old Balb/c mice, s.c. B16F10 established 5 days, 50 μg/ml in the tumors for 5 days
Experimental: For the study of the reduction of the size of the tumor in newborns making use of different therapies and their comparison with that of the invention, 5×10^5 cells of murine melanoma B16F10 were inoculated in a subcutaneous manner in the interscapular area of 9-day old female mice of the Balb/c strain.
(§1) Following 5 days post-inoculation, 50 μg/ml of the following therapies were inoculated in the tumors for 5 days: LLO91-99 (only peptide from listeriolysin O of Listeria monocytogenes, LLO91-99), GNP (empty gluconanoparticles), GNP-LLO91-99 (gluconanoparticles synthesized with the peptide from listeriolysin O of Listeria monocytogenes, LLO91-99), GNP-GAPDH1-22 (nanoparticles synthesized with the peptide from glyceraldehyde-3-phosphate dehydrogenase of Listeria monocytogenes, GAPDH1-22). As a control, a vector previously used in therapy was also included, dendritic cells loaded with the LLO91-99 (1×10^5 DC-LLO91-99) peptide.
(§2) Following this treatment, the mice were sacrificed and the tumors recovered, measuring their size with a gauge.

murine melanoma B16OVA = assay: Prevention of tumor growth, intraperitoneal melanoma after preventive treatment (Example 5); assay type: in vivo, mice; conditions: 50 μg/ml intraperitoneal 7 days before i.p. B16OVA, adult C57BL/6
Experimental: For the comparative study of the prevention of tumor growth in adults between the therapy of the invention and known anti-tumor therapies, the following therapies (50 μg/ml) were inoculated in female adults of the C57BL/6 strain in an intraperitoneal manner: LLO91-99 (only peptide from listeriolysin O of Listeria monocytogenes, LLO91-99), GNP (empty gluconanoparticles), GNP-LLO91-99 (gluconanoparticles synthesized with the peptide from listeriolysin O of Listeria monocytogenes, LLO91-99), GNP-GAPDH1-22 (nanoparticles synthesized with the peptide from glyceraldehyde-3-phosphate dehydrogenase of Listeria monocytogenes, GAPDH1-22) or saline (NT).
Following 7 days preventative post-treatment, the tumors were established following inoculation with 5×10^6 cells of murine melanoma B16OVA in an intraperitoneal manner. Following 7 days post-established of the tumor, the mice were sacrificed and the recovered tumors were measured by means of a gauge and the tumors were analyzed by means of immunohistochemical staining. The results of the reduction of the tumor growth and their intraperitoneal position are shown in FIG. 4A and FIG. 4B and the results of the analysis of the immunohistochemical staining in FIG. 4C.

murine melanoma B16F10 [2] = assay: Reduction of the size of the tumor, subcutaneous murine melanoma in adult mice (Example 2); assay type: in vivo; conditions: adult C57BL/6 mice, s.c. B16F10 established 7 days, 50 μg/ml inoculated in the tumors for 5 days
Experimental: For the study of the reduction of the size of the tumor making use of different therapies and their comparison with that of the invention, 1×10^6 cells of murine melanoma B16F10 were inoculated in a subcutaneous manner in the left ventral flank of 8-12-week old female mice of the C57BL/6 strain.
as §1, with “After 7” for “Following 5”, “GAPDH1-22) or no particle (NT). Dendritic cells loaded with the LLO91-99 (1×10^6 DC-LLO91-99) peptide were also included as” for “GAPDH1-22). As”, “therapy.” for “therapy was also included, dendritic cells loaded with the LLO91-99 (1×10^5 DC-LLO91-99) peptide.”
as §2

Substance: H-Gly-Tyr-Lys-Asp-Gly-Asn-Glu-Tyr-Ile-OH (H-GYKDGNEYI-OH) [LLO91-99, only peptide from listeriolysin O of Listeria monocytogenes, LLO91-99]
- therapeutic effect on the melanoma in newborns (in words) (murine melanoma B16F10 [1]): failed to achieve any therapeutic effect
- preventative / therapeutic effect on the melanoma (in words) (murine melanoma B16OVA): failed to achieve any therapeutic effect
- therapeutic effect on the melanoma (in words) (murine melanoma B16F10 [2]): do not achieve any therapeutic effect; also recorded: failed to achieve any therapeutic effect
